Assay results from patent US12102089B2, “Method for inactivating mold spores” (DSM IP ASSETS B.V., priority 2017, dated 2024).

Experiment: LC-MS/MS analysis of natamycin and mycosamine in heated ice tea sample
Format: physicochemical
Conditions: 10 ppm natamycin at t=0, heated at 70° C.
Procedure: For the analysis of mycosamine at low concentrations (ppb level) a sample preparation is used with a cation exchange SPE material to isolate mycosamine from the sample matrix and/or remove possible interfering impurities therefrom. The analysis was performed on LC-MS/MS on a ZIC-HILIC column. For the identification and (semi) quantification a reference of mycosamine was prepared. The concentration of mycosamine in this reference was determined with ^1H-NMR.

Measured: mycosamine found in sample

C[C@@H](O)[C@@H](O)[C@H](N)[C@H](O)C=O [mycosamine]
2 mg/L: Example 1 ice tea sample (pH 3.15) | Example 2 ice tea sample | Example 3 ice tea sample
